The results in this text go back to ChEMBL document CHEMBL1151789, “Molecular modeling studies toward the structural optimization of new cyclopeptide-based HDAC inhibitors modeled on the natural product FR235222” (Bioorg Med Chem, 2008).

The experiment can be described thus: Inhibition of HDLP.

Take `C[C@@H](O)C(=O)CCCCC[C@@H]1NC(=O)[C@@H]2CCCN2C(=O)[C@H](Cc2ccccc2)NC(=O)[C@H](Cc2ccccc2)NC1=O`: the Ki (usually the dissociation constant of the complex between target and ligand, obtained from inhibition or displacement) was found to be 0.0821 µM.
Still for that read-out and setting: then `C[C@@H](O)C(=O)CCCCC[C@@H]1NC(=O)[C@@H]2CCCN2C(=O)[C@H](Cc2ccccc2)NC(=O)[C@H](Cc2c[nH]c3ccccc23)NC1=O`, with 0.00777 µM.
`C[C@H](O)C(=O)CCCCC[C@@H]1NC(=O)[C@H]2CCCN2C(=O)[C@H](Cc2ccccc2)NC(=O)[C@H](Cc2cnc[nH]2)NC1=O`: the IC50 (commonly the concentration that inhibits the measured activity by half) was determined as 350 µM and the Ki was found to be 0.0342 µM.
In the same order, the values of `C[C@@H](O)C(=O)CCCCC[C@@H]1NC(=O)[C@H]2CCCN2C(=O)[C@H](Cc2ccccc2)NC(=O)[C@H](Cc2ccccc2)NC1=O` are 0.28 µM and 0.0369 µM.
In the same order, the values of `C[C@@H](O)C(=O)CCCCC[C@@H]1NC(=O)[C@H]2CCCN2C(=O)[C@H](Cc2ccccc2)NC(=O)[C@H](Cc2c[nH]c3ccccc23)NC1=O` are 0.02 µM and 0.000987 µM.
Regarding `C[C@H](O)C(=O)CCCCC[C@@H]1NC(=O)[C@@H]2CCCN2C(=O)[C@H](Cc2ccccc2)NC(=O)[C@H](Cc2ccc(Cl)cc2)NC1=O`, affinity was put at a Ki of 0.0234 µM.
The same measure, in the same setting: the same measure for `C[C@H](O)C(=O)CCCCC[C@@H]1NC(=O)[C@H]2CCCN2C(=O)[C@H](Cc2ccccc2)NC(=O)[C@H](Cc2ccc(Cl)cc2)NC1=O`: 0.0871 µM.
The compound `CC[C@]1(C)NC(=O)[C@H](CCCCCC(=O)[C@@H](C)O)NC(=O)[C@H]2CC(C)(C)CN2C(=O)[C@H](Cc2ccccc2)NC1=O` had an IC50 of 0.09 µM and a Ki of 0.0604 µM.
As to `CC[C@]1(C)NC(=O)[C@H](CCCCCC(=O)[C@@H](C)O)NC(=O)[C@H]2CCCN2C(=O)[C@H](Cc2ccccc2)NC1=O`, the IC50 came out at 0.05 µM and the Ki was 0.0186 µM.
With `C[C@H](O)C(=O)CCCCC[C@@H]1NC(=O)[C@H]2CCCN2C(=O)[C@H](Cc2ccccc2)NC(=O)C(C)(C)NC1=O`, half-maximal inhibition (IC50) required 0.33 µM and affinity was put at a Ki of 0.194 µM.
On the same counts, the results for `C[C@@H](O)C(=O)CCCCC[C@@H]1NC(=O)[C@H]2CCCN2C(=O)[C@H](Cc2ccccc2)NC(=O)C(C)(C)NC1=O` are 0.03 µM and 0.0164 µM.
As to `CC[C@]1(C)NC(=O)[C@H](CCCCCC(=O)[C@@H](C)O)NC(=O)[C@@H]2CC(C)(C)CN2C(=O)[C@H](Cc2ccccc2)NC1=O`, the Ki was 0.0458 µM.
As to `C[C@H](O)C(=O)CCCCC[C@@H]1NC(=O)[C@@H]2CCCN2C(=O)[C@H](Cc2ccccc2)NC(=O)C2(CCCCC2)NC1=O`, affinity was put at a Ki of 0.00679 µM.
For the compound `CC[C@@H]1NC(=O)[C@H](CCCCCC(=O)[C@H](C)O)NC(=O)[C@H]2CCCN2C(=O)[C@H](Cc2ccccc2)NC1=O`, the concentration for half-maximal inhibition (IC50) was 1 µM and the Ki is 0.11 µM.
As for `C[C@@H](O)C(=O)CCCCC[C@@H]1NC(=O)[C@@H]2CCCN2C(=O)[C@H](Cc2ccccc2)NC(=O)C(C)(C)NC1=O`, the affinity corresponds to a Ki of 0.0106 µM.
Same read-out and setting: the same measure for `CC[C@@H]1NC(=O)[C@H](CCCCCC(=O)[C@H](C)O)NC(=O)[C@@H]2CCCN2C(=O)[C@H](Cc2ccccc2)NC1=O`: 0.0536 µM; for `CC[C@]1(C)NC(=O)[C@H](CCCCCC(=O)[C@@H](C)O)NC(=O)[C@@H]2CCCN2C(=O)[C@H](Cc2ccccc2)NC1=O`: 0.0127 µM.
The same measure, in the same setting: the same measure for `C[C@H](O)C(=O)CCCCC[C@@H]1NC(=O)[C@@H]2CCCN2C(=O)[C@H](Cc2ccccc2)NC(=O)[C@H](Cc2cnc[nH]2)NC1=O`: 0.02 µM.
As for `C[C@H](O)C(=O)CCCCC[C@@H]1NC(=O)[C@H]2CCCN2C(=O)[C@H](Cc2ccccc2)NC(=O)C2(CCCCC2)NC1=O`, the IC50 was found to be 0.67 µM and the Ki worked out at 0.0254 µM.
The compound `C[C@H](O)C(=O)CCCCC[C@@H]1NC(=O)[C@@H]2CCCN2C(=O)[C@H](Cc2ccccc2)NC(=O)C(C)(C)NC1=O` displayed a Ki of 0.0528 µM.
